Assay results taken from ChEMBL document CHEMBL4392840, “Further sesquiterpenoids from the rhizomes of Homalomena occulta and their anti-inflammatory activity” (Bioorg Med Chem Lett, 2019).
Calls of active or inactive are those of the source. No cut-off for these calls is given here.

How the values were obtained:
Format in all cases: functional, cell-based
[1] = tested on: RAW264.7; test: Antiinflammatory activity in mouse RAW264.7 cells assessed as inhibition of LPS-induced PGE2 formation preincubated for 30 mins followed by LPS-stimulation and measured after 18 hrs by ELISA
[2] = tested on: RAW264.7; test: Antiinflammatory activity in mouse RAW264.7 cells assessed as inhibition of LPS-induced COX2 mRNA expression at 10 uM preincubated for 30 mins followed by LPS-stimulation and measured after 18 hrs by QuantiFast SYBR Green dye based RT-PCR analysis
[3] = tested on: RAW264.7; test: Antiinflammatory activity in mouse RAW264.7 cells assessed as inhibition of LPS-induced COX2 expression at 1 to 10 uM preincubated for 30 mins followed by LPS-stimulation and measured after 18 hrs by Western blot analysis
[4] = tested on: RAW264.7; test: Antiinflammatory activity in mouse RAW264.7 cells assessed as inhibition of LPS-induced COX2 mRNA expression preincubated for 30 mins followed by LPS-stimulation and measured after 18 hrs by QuantiFast SYBR Green dye based RT-PCR analysis
[5] = tested on: RAW264.7; test: Antiinflammatory activity in mouse RAW264.7 cells assessed as inhibition of LPS-induced COX2 mRNA expression at 50 uM preincubated for 30 mins followed by LPS-stimulation and measured after 18 hrs by QuantiFast SYBR Green dye based RT-PCR analysis

SMILES	inhibition [1]	inhibition [2]	inhibition [3]	inhibition [4]	inhibition [5]
CC(C)[C@@H](O)[C@H]1CC[C@@]2(C)[C@@H]1[C@]1(C)CC[C@H]2O1	Dose-dependent effect	Active	Active	Dose-dependent effect	–
CC1(C)[C@H]2[C@H]3[C@@H](CC[C@]3(C)O)[C@](C)(O)CC[C@H]21	–	Active	Active	Dose-dependent effect	–
C[C@@H]1CC[C@H]2[C@@H]1[C@H]1[C@@H](CC[C@@]2(C)O)C1(C)C	–	Active	Active	Dose-dependent effect	–
Cc1cnc(NC(=O)C2=C(O)c3ccccc3S(=O)(=O)N2C)s1	–	–	–	–	Active
